Reference: paper PMC6979384, “Characterization of the plant homeodomain (PHD) reader family for their histone tail interactions” (Epigenetics & Chromatin, 2020)

Columns and labels:
Assay in all cases: Histone peptide microarray
Format in all cases: binding, human
Details in all cases: total n = 4
ING4 = test system: ING4
Procedure, shortened: (§1)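 Using an optimized microarray protocol, purified GST-tagged PHD fingers were incubated at 0.5 μM on 293 histone peptides with single or multiple modifications, and array signal was recorded as the average of 4 replicates.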

BPTF (PB) = test system: BPTF (PB)
Procedure, shortened: as §1

MORC3 (CW) = test system: MORC3 (CW)
Procedure, shortened: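 Binding read as mean relative signal from 4 replicates; microarray held 293 synthetic histone peptides with single or combinatorial PTMs. Each GST-tagged PHD reader was applied at 0.5 μM using the optimized Petell protocol.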

AIRE (PP) = test system: AIRE (PP)
Procedure, shortened: as §1

ING1 = test system: ING1
Procedure, shortened: as §1

PHF13 = test system: PHF13
Procedure, shortened: as §1

KDM5A (1) = test system: KDM5A (1)
Procedure, shortened: as §1

DPF2 (PPC2W2) = test system: DPF2 (PPC2W2)
Procedure, shortened: as §1

KDM5B (3) = test system: KDM5B (3)
Procedure, shortened: as §1

SP140L = test system: SP140L
Procedure, shortened: as §1

MLL5 = test system: MLL5
Procedure, shortened: as §1

KDM5B (1) = test system: KDM5B (1)
Procedure, shortened: as §1

KDM4C (TTP) = test system: KDM4C (TTP)
Procedure, shortened: as §1

PHF21A = test system: PHF21A
Procedure, shortened: as §1

PHF8 = test system: PHF8
Procedure, shortened: as §1

ING5 = test system: ING5
Procedure, shortened: as §1

ING2 = test system: ING2
Procedure, shortened: as §1

PHF2 = test system: PHF2
Procedure, shortened: as §1

PHRF1 (RP) = test system: PHRF1 (RP)
Procedure, shortened: as §1

KDM5A (3) = test system: KDM5A (3)
Procedure, shortened: as §1

CHD5 (PCC) = test system: CHD5 (PCC)
Procedure, shortened: as §1

CHD5 (PPCC) = test system: CHD5 (PPCC)
Procedure, shortened: as §1

RAG2 = test system: RAG2
Procedure, shortened: as §1

DIDO1 = test system: DIDO1
Procedure, shortened: as §1

PHF23 = test system: PHF23
Procedure, shortened: as §1

BAZ2B = test system: BAZ2B
Procedure, shortened: as §1

KDM7A = test system: KDM7A
Procedure, shortened: as §1

TAF3 = test system: TAF3
Procedure, shortened: as §1

TRIM66 (PB) = test system: TRIM66 (PB)
Procedure, shortened: as §1

CHD4 (PPCC) = test system: CHD4 (PPCC)
Procedure, shortened: as §1

ING3 = test system: ING3
Procedure, shortened: as §1

[1] = sheet "Array Heatmap", GST-tagged reader, histone peptide array

H3R8me1: H3 1-20 [Peptide H3R8me1]
Array Heatmap signal, ING4 (ING4; [1]): 0.4481 | Array Heatmap signal, BPTF (PB) (BPTF (PB); [1]): 0.34 | Array Heatmap signal, MORC3 (CW) (MORC3 (CW); [1]): 0.4492 | Array Heatmap signal, AIRE (PP) (AIRE (PP); [1]): 0.5084 | Array Heatmap signal, ING1 (ING1; [1]): 0.4918 | Array Heatmap signal, PHF13 (PHF13; [1]): 0.597 | Array Heatmap signal, KDM5A (1) (KDM5A (1); [1]): 0.4661 | Array Heatmap signal, DPF2 (PPC2W2) (DPF2 (PPC2W2); [1]): 0.6736 | Array Heatmap signal, KDM5B (3) (KDM5B (3); [1]): 0.4843 | Array Heatmap signal, SP140L (SP140L; [1]): 0.3587 | Array Heatmap signal, MLL5 (MLL5; [1]): 0.5181 | Array Heatmap signal, KDM5B (1) (KDM5B (1); [1]): 0.6779 | Array Heatmap signal, KDM4C (TTP) (KDM4C (TTP); [1]): 0.4945 | Array Heatmap signal, PHF21A (PHF21A; [1]): 0.4425 | Array Heatmap signal, PHF8 (PHF8; [1]): 0.3354 | Array Heatmap signal, ING5 (ING5; [1]): 0.3558 | Array Heatmap signal, ING2 (ING2; [1]): 0.6007 | Array Heatmap signal, PHF2 (PHF2; [1]): 0.4833 | Array Heatmap signal, PHRF1 (RP) (PHRF1 (RP); [1]): 0.6379 | Array Heatmap signal, KDM5A (3) (KDM5A (3); [1]): 0.5111 | Array Heatmap signal, CHD5 (PCC) (CHD5 (PCC); [1]): 0.7411 | Array Heatmap signal, CHD5 (PPCC) (CHD5 (PPCC); [1]): 0.5449 | Array Heatmap signal, RAG2 (RAG2; [1]): 0.2447 | Array Heatmap signal, DIDO1 (DIDO1; [1]): 0.6306 | Array Heatmap signal, PHF23 (PHF23; [1]): 0.5397 | Array Heatmap signal, BAZ2B (BAZ2B; [1]): 0.4447 | Array Heatmap signal, KDM7A (KDM7A; [1]): 0.3359 | Array Heatmap signal, TAF3 (TAF3; [1]): 0.2594 | Array Heatmap signal, TRIM66 (PB) (TRIM66 (PB); [1]): 0.5513 | Array Heatmap signal, CHD4 (PPCC) (CHD4 (PPCC); [1]): 0.56 | Array Heatmap signal, ING3 (ING3; [1]): 0.4554

H3K9ac + K14ac: H3 1-20
Array Heatmap signal (histone peptide microarray) (ING4; GST-tagged ING4, sheet Array Heatmap, each array performed twice): 0.4734 | Array Heatmap signal (histone peptide microarray) (BPTF (PB); GST-tagged BPTF (PB = PHD + Bromodomain), sheet Array Heatmap, each array performed twice): 0.3651 | Array Heatmap signal (histone peptide microarray) (MORC3 (CW); GST-tagged MORC3 (CW = CW-type Zn-finger), sheet Array Heatmap, each array performed twice): 0.5873 | Array Heatmap signal (histone peptide microarray) (AIRE (PP); GST-tagged AIRE (PP), sheet Array Heatmap, each array performed twice): 0.699 | Array Heatmap signal (histone peptide microarray) (ING1; GST-tagged ING1, sheet Array Heatmap, each array performed twice): 0.5104 | Array Heatmap signal (histone peptide microarray) (PHF13; GST-tagged PHF13, sheet Array Heatmap, each array performed twice): 0.6041 | Array Heatmap signal (histone peptide microarray) (KDM5A (1); GST-tagged KDM5A (1), sheet Array Heatmap, each array performed twice): 0.5569 | Array Heatmap signal (histone peptide microarray) (DPF2 (PPC2W2); GST-tagged DPF2 (PPC2W2 = Dual PHD + C2W2-type Zn-finger), sheet Array Heatmap, each array performed twice): 1 | Array Heatmap signal (histone peptide microarray) (KDM5B (3); GST-tagged KDM5B (3), sheet Array Heatmap, each array performed twice): 0.6203 | Array Heatmap signal (histone peptide microarray) (SP140L; GST-tagged SP140L, sheet Array Heatmap, each array performed twice): 0.3541 | Array Heatmap signal (histone peptide microarray) (MLL5; GST-tagged MLL5, sheet Array Heatmap, each array performed twice): 0.5394 | Array Heatmap signal (histone peptide microarray) (KDM5B (1); GST-tagged KDM5B (1), sheet Array Heatmap, each array performed twice): 0.9142 | Array Heatmap signal (histone peptide microarray) (KDM4C (TTP); GST-tagged KDM4C (TTP = Tandem Tudor domain + PHD), sheet Array Heatmap, each array performed twice): 0.5191 | Array Heatmap signal (histone peptide microarray) (PHF21A; GST-tagged PHF21A, sheet Array Heatmap, each array performed twice): 0.5392 | Array Heatmap signal (histone peptide microarray) (PHF8; GST-tagged PHF8, sheet Array Heatmap, each array performed twice): 0.3842 | Array Heatmap signal (histone peptide microarray) (ING5; GST-tagged ING5, sheet Array Heatmap, each array performed twice): 0.3504 | Array Heatmap signal (histone peptide microarray) (ING2; GST-tagged ING2, sheet Array Heatmap, each array performed twice): 0.5932 | Array Heatmap signal (histone peptide microarray) (PHF2; GST-tagged PHF2, sheet Array Heatmap, each array performed twice): 0.4774 | Array Heatmap signal (histone peptide microarray) (PHRF1 (RP); GST-tagged PHRF1 (RP), sheet Array Heatmap, each array performed twice): 1 | Array Heatmap signal (histone peptide microarray) (KDM5A (3); GST-tagged KDM5A (3), sheet Array Heatmap, each array performed twice): 0.5178 | Array Heatmap signal (histone peptide microarray) (CHD5 (PCC); GST-tagged CHD5 (PCC = PHD + Dual Chromodomain), sheet Array Heatmap, each array performed twice): 0.9958 | Array Heatmap signal (histone peptide microarray) (CHD5 (PPCC); GST-tagged CHD5 (PPCC = Dual PHD + Dual Chromodomain), sheet Array Heatmap, each array performed twice): 0.6001 | Array Heatmap signal (histone peptide microarray) (RAG2; GST-tagged RAG2, sheet Array Heatmap, each array performed twice): 0.2862 | Array Heatmap signal (histone peptide microarray) (DIDO1; GST-tagged DIDO1, sheet Array Heatmap, each array performed twice): 0.6252 | Array Heatmap signal (histone peptide microarray) (PHF23; GST-tagged PHF23, sheet Array Heatmap, each array performed twice): 0.5024 | Array Heatmap signal (histone peptide microarray) (BAZ2B; GST-tagged BAZ2B, sheet Array Heatmap, each array performed twice): 1 | Array Heatmap signal (histone peptide microarray) (KDM7A; GST-tagged KDM7A, sheet Array Heatmap, each array performed twice): 0.4362 | Array Heatmap signal (histone peptide microarray) (TAF3; GST-tagged TAF3, sheet Array Heatmap, each array performed twice): 0.3149 | Array Heatmap signal (histone peptide microarray) (TRIM66 (PB); GST-tagged TRIM66 (PB = PHD + Bromodomain), sheet Array Heatmap, each array performed twice): 0.9112 | Array Heatmap signal (histone peptide microarray) (CHD4 (PPCC); GST-tagged CHD4 (PPCC = Dual PHD + Dual Chromodomain), sheet Array Heatmap, each array performed twice): 0.673 | Array Heatmap signal (histone peptide microarray) (ING3; GST-tagged ING3, sheet Array Heatmap, each array performed twice): 0.4549
